Test results published in ChEMBL document CHEMBL5385890, “A JAK tyrosine kinase and pseudokinase Co-inhibition strategy combines enhanced potency and on-demand activation” (Eur J Med Chem, 2023).
pIC50: −log10 of the molar value. Activity calls are given as the source filed them. The rule behind the calls is not given here.

Experiments:
[1] = Cytotoxicity against HUVEC cells assessed as inhibition of cell growth; assay type: toxicity, cell-based; conditions: human
Mus musculus [2] = assay: In vivo inhibition of JAK/STAT signalling in Balb/c nude mouse xenografted with HEL cells assessed as reduction in STAT3 phosphorylation in liver at 40 to 80 mg/kg, ip administered for 14 consecutive days by Western blot analysis; assay type: functional, organism-based; conditions: dose 40-80 mg/kg, time 14.0 day
HEL [3] = assay: Antitumor activity against HEL cells xenografted in Balb/c nude mouse assessed as induction of apoptosis in tumor at 40 to 80 mg/kg, ip administered once daily for 14 consecutive days by TUNEL assay relative to control; assay type: functional, organism-based; conditions: Homo sapiens, dose 40-80 mg/kg, time 14.0 day
Mus musculus [4] = assay: In vivo inhibition of JAK/STAT signalling in Balb/c nude mouse xenografted with HEL cells assessed as reduction in STAT5 phosphorylation in heart at 40 to 80 mg/kg, ip administered for 14 consecutive days by Western blot analysis; assay type: functional, organism-based; conditions: dose 40-80 mg/kg, time 14.0 day
[5] = Prodrug release in HEL cells assessed as N-tert-butyl-3-[[5-methyl-2-(4-piperazin-1-ylanilino)pyrimidin-4-yl]amino]benzenesulfonamide formation at 1 uM incubated for 24 hrs under hypoxic condition by LC-MS/MS analysis; assay type: ADME, cell-based; conditions: human
Mus musculus [6] = assay: In vivo inhibition of JAK/STAT signalling in Balb/c nude mouse xenografted with HEL cells assessed as reduction in STAT5 phosphorylation in kidney at 40 to 80 mg/kg, ip administered for 14 consecutive days by Western blot analysis; assay type: functional, organism-based; conditions: dose 40-80 mg/kg, time 14.0 day
Mus musculus [7] = assay: In vivo inhibition of JAK/STAT signalling in Balb/c nude mouse xenografted with HEL cells assessed as reduction in STAT5 phosphorylation in liver at 40 to 80 mg/kg, ip administered for 14 consecutive days by Western blot analysis; assay type: functional, organism-based; conditions: dose 40-80 mg/kg, time 14.0 day
[8] = Toxicity in Balb/c nude mouse xenografted with HEL cells assessed as reduction in body weight at 40 to 80 mg/kg, ip administered for 14 consecutive days; assay type: organism-based; conditions: in vivo, 336 h, dose 40-80 mg/kg, time 14 day
HEL [9] = assay: Antitumor activity against HEL cells xenografted in Balb/c nude mouse assessed as tumor growth inhibition at 80 mg/kg, ip administered once daily for 14 consecutive days relative to control; assay type: functional, Homo sapiens; conditions: 336 h, time 14 day, read-out: TGI
HEL [10] = assay: Cytotoxicity against HEL cells assessed as inhibition of cell growth incubated under normoxic condition; assay type: functional, cell-based; conditions: Homo sapiens
HEL [11] = assay: Inhibition of JAK/STAT phosphorylation in HEL cells assessed as reduction in STAT3 phosphorylation at 3 uM incubated under hypoxic condition by Western blot analysis; assay type: cell-based; conditions: Homo sapiens
Mus musculus [12] = assay: In vivo inhibition of JAK/STAT signalling in Balb/c nude mouse xenografted with HEL cells assessed as reduction in STAT3 phosphorylation in spleen at 40 to 80 mg/kg, ip administered for 14 consecutive days by Western blot analysis; assay type: functional, organism-based; conditions: dose 40-80 mg/kg, time 14.0 day
Mus musculus [13] = assay: In vivo inhibition of JAK/STAT signalling in Balb/c nude mouse xenografted with HEL cells assessed as reduction in STAT3 phosphorylation in kidney at 40 to 80 mg/kg, ip administered for 14 consecutive days by Western blot analysis; assay type: functional, organism-based; conditions: dose 40-80 mg/kg, time 14.0 day
HEL [14] = assay: Inhibition of JAK/STAT phosphorylation in HEL cells assessed as reduction in STAT3 phosphorylation at 3 uM incubated under normoxic condition by Western blot analysis; assay type: cell-based; conditions: Homo sapiens
HEL [15] = assay: Cytotoxicity against HEL cells assessed as inhibition of cell growth incubated under hypoxic condition; assay type: functional, cell-based; conditions: Homo sapiens
Mus musculus [16] = assay: In vivo inhibition of JAK/STAT signalling in Balb/c nude mouse xenografted with HEL cells assessed as reduction in STAT3 phosphorylation in heart at 40 to 80 mg/kg, ip administered for 14 consecutive days by Western blot analysis; assay type: functional, organism-based; conditions: dose 40-80 mg/kg, time 14.0 day
Mus musculus [17] = assay: In vivo inhibition of JAK/STAT signalling in Balb/c nude mouse xenografted with HEL cells assessed as reduction in STAT5 phosphorylation in spleen at 40 to 80 mg/kg, ip administered for 14 consecutive days by Western blot analysis; assay type: functional, organism-based; conditions: dose 40-80 mg/kg, time 14.0 day
[18] = Prodrug release in PBS buffer in presence of NADH and nitroreductase assessed as N-tert-butyl-3-[[5-methyl-2-(4-piperazin-1-ylanilino)pyrimidin-4-yl]amino]benzenesulfonamide formation at 10 uM and measured after 120 mins under hypoxic condition by LC-MS/MS analysis; assay type: ADME; conditions: 2 h
Mus musculus [19] = assay: In vivo inhibition of JAK/STAT signalling in Balb/c nude mouse xenografted with HEL cells assessed as reduction in STAT3 phosphorylation in lung at 40 to 80 mg/kg, ip administered for 14 consecutive days by Western blot analysis; assay type: functional, organism-based; conditions: dose 40-80 mg/kg, time 14.0 day
[20] = Prodrug release in HEL cells assessed as 3-cyclopropyl-1-(3-{5-[(morpholin-4-yl)methyl]-1H-1,3-benzodiazol-2-yl}-1H-pyrazol-4-yl)urea formation at 1 uM incubated for 24 hrs under hypoxic condition by LC-MS/MS analysis; assay type: ADME, cell-based; conditions: human
HEL [21] = assay: Inhibition of JAK/STAT phosphorylation in HEL cells assessed as reduction in STAT5 phosphorylation at 3 uM incubated under normoxic condition by Western blot analysis; assay type: cell-based; conditions: Homo sapiens
Mus musculus [22] = assay: In vivo inhibition of JAK/STAT signalling in Balb/c nude mouse xenografted with HEL cells assessed as reduction in STAT5 phosphorylation in lung at 40 to 80 mg/kg, ip administered for 14 consecutive days by Western blot analysis; assay type: functional, organism-based; conditions: dose 40-80 mg/kg, time 14.0 day
HEL [23] = assay: Inhibition of JAK/STAT phosphorylation in HEL cells assessed as reduction in STAT5 phosphorylation at 3 uM incubated under hypoxic condition by Western blot analysis; assay type: cell-based; conditions: Homo sapiens
[24] = Stability of compound in mouse plasma measured after 24 hrs; assay type: ADME, cell-free; conditions: 24 h
[25] = Stability of compound in human plasma measured after 24 hrs; assay type: ADME, cell-free; conditions: 24 h
[26] = Prodrug release in PBS buffer in presence of NADH and nitroreductase assessed as 3-cyclopropyl-1-(3-{5-[(morpholin-4-yl)methyl]-1H-1,3-benzodiazol-2-yl}-1H-pyrazol-4-yl)urea formation at 10 uM measured after 120 mins under hypoxic condition by LC-MS/MS analysis; assay type: ADME; conditions: 2 h
HEL [27] = assay: Antitumor activity against HEL cells xenografted in Balb/c nude mouse assessed as tumor growth inhibition at 40 mg/kg, ip administered once daily for 14 consecutive days relative to control; assay type: functional, Homo sapiens; conditions: 336 h, time 14 day, read-out: TGI
[28] = Stability of compound in PBS measured after 24 hrs; assay type: physicochemical; conditions: buffer, 24 h
HEL [29] = assay: Cytotoxicity against HEL cells assessed as inhibition of cell growth; assay type: functional, cell-based; conditions: Homo sapiens
[30] = Cytotoxicity against HUVEC cells assessed as inhibition of cell growth incubated in presence of N-tert-butyl-3-[[5-methyl-2-(4-piperazin-1-ylanilino)pyrimidin-4-yl]amino]benzenesulfonamide; conditions: human
BaF3 = assay: Cytotoxicity against mouse BaF3 cells harboring EPOR JAK2 V617F mutant measured after 24 hrs by XTT assay; assay type: functional, cell-based; conditions: BaF3, 24 h

Q: With `Cc1cc(COC(=O)N2CCN(c3ccc(Nc4ncc(C)c(Nc5cccc(S(=O)(=O)NC(C)(C)C)c5)n4)cc3)CC2)c(OCc2cnc([N+](=O)[O-])n2C)c(COC(=O)n2cc(NC(=O)NC3CC3)c(-c3nc4cc(CN5CCOCC5)ccc4[nH]3)n2)c1` as the compound, how does the pIC50 [1] read?
A: 4.07

Q: What about the inhibition (Mus musculus [2]) of the same compound?
A: inactive

Q: And the Activity (HEL [3])?
A: Active

Q: What about the inhibition (Mus musculus [4]) of the same compound?
A: inactive

Q: What about the Drug metabolism [5] of the same compound?
A: Metabolite_Detected

Q: And the inhibition (Mus musculus [6])?
A: inactive

Q: And the inhibition (Mus musculus [7])?
A: inactive

Q: What about the Activity [8] of the same compound?
A: Non-Toxic

Q: And the inhibition in vivo at 80 mg/kg (HEL [9])?
A: 88.9%

Q: What about the pIC50 (HEL [10]) of the same compound?
A: < 3.70

Q: And the inhibition (HEL [11])?
A: Active

Q: And the inhibition (Mus musculus [12])?
A: inactive

Q: What about the inhibition (Mus musculus [13]) of the same compound?
A: inactive

Q: What about the inhibition (HEL [14]) of the same compound?
A: inactive

Q: And the pIC50 (HEL [15])?
A: 5.51

Q: What about the inhibition (Mus musculus [16]) of the same compound?
A: inactive

Q: What about the inhibition (Mus musculus [17]) of the same compound?
A: inactive

Q: What about the Drug metabolism [18] of the same compound?
A: 6.57 µM

Q: What about the inhibition (Mus musculus [19]) of the same compound?
A: inactive

Q: What about the Drug metabolism [20] of the same compound?
A: Metabolite_Detected

Q: And the inhibition (HEL [21])?
A: inactive

Q: What about the inhibition (Mus musculus [22]) of the same compound?
A: inactive

Q: And the inhibition (HEL [23])?
A: Active

Q: And the Stability [24]?
A: Stable

Q: What about the Stability [25] of the same compound?
A: Stable

Q: And the Drug metabolism [26]?
A: 6.49 µM

Q: What about the inhibition in vivo at 40 mg/kg (HEL [27]) of the same compound?
A: 59.8%

Q: And the Stability [28]?
A: Stable

Q: With `CC[C@@](C)(Nc1ccnc(-c2c[nH]c3ncccc23)n1)C(=O)NCC(F)(F)F` [DECERNOTINIB] as the compound, how does the pIC50 (HEL [29]) read?
A: 5.59

Q: With `O=C(Nc1c[nH]nc1-c1nc2cc(CN3CCOCC3)ccc2[nH]1)NC1CC1` [AT-9283] as the compound, how does the pIC50 [1] read?
A: 5.75

Q: What about the pIC50 [30] of the same compound?
A: 5.75

Q: With `Cc1cnc(Nc2ccc(N3CCN(C)CC3)cc2)nc1Nc1cccc(S(=O)(=O)NC(C)(C)C)c1` as the compound, how does the pIC50 (BaF3) read?
A: 6.77
